Active and inactive are the calls of the source. The rule behind the calls is not given here.
Experiments:
[1] = tested on: Staphylococcus cohnii; test: Antibacterial activity against Staphylococcus cohnii at 200 ug/disc after 24 hrs by disc diffusion method; type: functional, organism-based
[2] = tested on: Staphylococcus aureus; test: Antibacterial activity against Staphylococcus aureus at 200 ug/disc after 24 hrs by disc diffusion method; type: functional, organism-based
[3] = tested on: Nakaseomyces glabratus; test: Antifungal activity against Candida glabrata at 10 mg/ml after 48 hrs by disc diffusion method; type: functional, organism-based
[4] = tested on: Photorhabdus luminescens; test: Antibacterial activity against Photorhabdus luminescens at 6.25 to 200 ug/ml after 24 hrs by microwell dilution method; type: functional, organism-based
[5] = tested on: Kluyveromyces marxianus; test: Antifungal activity against Kluyveromyces marxianus at 10 mg/ml after 48 hrs by disc diffusion method; type: functional, organism-based
[6] = tested on: Micrococcus luteus; test: Antibacterial activity against Micrococcus luteus at 6.25 to 200 ug/ml after 24 hrs by microwell dilution method; type: functional, organism-based
[7] = tested on: T47D; test: Cytotoxicity against human T47D assessed as cell growth at 10 uM after 48 hrs by SRB assay; type: functional; details: read-out: Activity
[8] = tested on: Klebsiella aerogenes; test: Antibacterial activity against Enterobacter aerogenes at 6.25 to 200 ug/ml after 24 hrs by microwell dilution method; type: functional, organism-based
[9] = tested on: MDA-MB-468; test: Cytotoxicity against human MDA-MB-468 assessed as cell growth at 10 uM after 48 hrs by SRB assay; type: functional; details: MDA-MB-468, 48 h, read-out: Activity
[10] = tested on: Micrococcus lylae; test: Antibacterial activity against Micrococcus lylae at 6.25 to 200 ug/ml after 24 hrs by microwell dilution method; type: functional, organism-based
[11] = tested on: Acinetobacter radioresistens; test: Antibacterial activity against Acinetobacter radioresistens at 10 mg/ml after 24 hrs by disc diffusion method; type: functional, organism-based
[12] = tested on: Staphylococcus aureus; test: Antibacterial activity against Staphylococcus aureus at 6.25 to 200 ug/ml after 24 hrs by microwell dilution assay; type: functional, organism-based
[13] = tested on: Klebsiella aerogenes; test: Antibacterial activity against Enterobacter aerogenes at 10 mg/ml after 24 hrs by disc diffusion method; type: functional, organism-based
[14] = tested on: Candida tropicalis; test: Antifungal activity against Candida tropicalis at 10 mg/ml after 48 hrs by disc diffusion method; type: functional, organism-based
[15] = tested on: Micrococcus lylae; test: Antibacterial activity against Micrococcus lylae at 10 mg/ml after 24 hrs by disc diffusion method; type: functional, organism-based
[16] = tested on: Salmonella paratyphi; test: Antibacterial activity against Salmonella paratyphi at 6.25 to 200 ug/ml after 24 hrs by microwell dilution method; type: functional, organism-based; details: Salmonella enterica subsp. enterica serovar Paratyphi A
[17] = tested on: Photorhabdus luminescens; test: Antibacterial activity against Photorhabdus luminescens at 10 mg/ml after 24 hrs by disc diffusion method; type: functional, organism-based
[18] = tested on: Candida albicans; test: Antifungal activity against Candida albicans at 10 mg/ml after 48 hrs by disc diffusion method; type: functional, organism-based
[19] = tested on: Acinetobacter radioresistens; test: Antibacterial activity against Acinetobacter radioresistens at 6.25 to 200 ug/ml after 24 hrs by microwell dilution method; type: functional, organism-based
[20] = tested on: Pichia membranifaciens; test: Antifungal activity against Pichia membranifaciens at 10 mg/ml after 48 hrs by disc diffusion method; type: functional, organism-based
[21] = tested on: Salmonella paratyphi; test: Antibacterial activity against Salmonella paratyphi at 10 mg/ml after 24 hrs by disc diffusion method; type: functional, organism-based; details: Salmonella enterica subsp. enterica serovar Paratyphi A
[22] = tested on: Staphylococcus cohnii; test: Antibacterial activity against Staphylococcus cohnii at 10 mg/ml after 24 hrs by disc diffusion method; type: functional
[23] = tested on: Pseudomonas aeruginosa; test: Antibacterial activity against Pseudomonas aeruginosa at 6.25 to 200 ug/ml after 24 hrs by microwell dilution method; type: functional, organism-based
[24] = tested on: Staphylococcus aureus; test: Antibacterial activity against Staphylococcus aureus at 10 mg/ml after 24 hrs by disc diffusion method; type: functional
[25] = tested on: Micrococcus luteus; test: Antibacterial activity against Micrococcus luteus at 10 mg/ml after 24 hrs by disc diffusion method; type: functional, organism-based
[26] = tested on: Candida parapsilosis; test: Antifungal activity against Candida parapsilosis at 10 mg/ml after 48 hrs by disc diffusion method; type: functional, organism-based
[27] = tested on: Aspergillus; test: Antifungal activity against Aspergillus at 10 mg/ml after 72 hrs by disc diffusion method; type: functional, organism-based
[28] = tested on: Proteus vulgaris; test: Antibacterial activity against Proteus vulgaris at 6.25 to 200 ug/ml after 24 hrs by microwell dilution method; type: functional, organism-based
[29] = tested on: Escherichia coli; test: Antibacterial activity against Escherichia coli at 10 mg/ml after 24 hrs by disc diffusion method; type: functional, organism-based
[30] = tested on: Proteus vulgaris; test: Antibacterial activity against Proteus vulgaris at 10 mg/ml after 24 hrs by disc diffusion method; type: functional, organism-based
[31] = tested on: Pseudomonas aeruginosa; test: Antibacterial activity against Pseudomonas aeruginosa at 10 mg/ml after 24 hrs by disc diffusion method; type: functional, organism-based
[32] = tested on: Staphylococcus cohnii; test: Antibacterial activity against Staphylococcus cohnii at 6.25 to 200 ug/ml after 24 hrs by microwell dilution assay; type: functional, organism-based
[33] = tested on: Escherichia coli; test: Antibacterial activity against Escherichia coli at 6.25 to 200 ug/ml after 24 hrs by microwell dilution method; type: functional, organism-based
[34] = tested on: Hepacivirus hominis; test: Inhibition of HCV N-terminal His-tagged NS5B RNA dependent RNA polymerase expressed in Escherichia coli DH5alpha using poly rA/U12 as primer at 200 uM after 60 mins by liquid scintillation counting
[35] = tested on: Schwanniomyces occidentalis; test: Antifungal activity against Schwanniomyces occidentalis at 10 mg/ml after 48 hrs by disc diffusion method; type: functional, organism-based
[36] = tested on: Micrococcus luteus; test: Antibacterial activity against Micrococcus luteus at 100 to 200 ug/ml after 24 hrs by microwell dilution assay; type: functional, organism-based
[37] = tested on: Staphylococcus cohnii; test: Antibacterial activity against Staphylococcus cohnii at 100 to 200 ug/ml after 24 hrs by microwell dilution assay; type: functional, organism-based
[38] = tested on: Staphylococcus aureus; test: Antibacterial activity against Staphylococcus aureus at 100 to 200 ug/ml after 24 hrs by microwell dilution assay; type: functional, organism-based
[39] = tested on: PC-3; test: Cytotoxicity against human PC3 assessed as cell growth at 10 uM after 48 hrs by SRB assay; type: functional; details: PC-3, 48 h, read-out: Activity
[40] = tested on: CAKI-1; test: Cytotoxicity against human Caki1 assessed as cell growth at 10 uM after 48 hrs by SRB assay; type: functional; details: CAKI-1, 48 h, read-out: Activity
[41] = tested on: SR; test: Cytotoxicity against human SR assessed as cell growth at 10 uM after 48 hrs by SRB assay; type: functional; details: read-out: Activity

Row | SMILES | Activity [3] | Activity [4] | Activity [5] | Activity [6] | growth at 10 µM [7] | Activity [8] | Activity [10] | Activity [11] | Activity [12] | Activity [13] | Activity [14] | Activity [15] | Activity [16] | Activity [17] | Activity [18] | Activity [19] | Activity [20] | Activity [21] | Activity [22] | inhibition [34] | other results
1 | CC1(C)S[C@@H]2[C@H](NC(=O)[C@H](N)c3ccccc3)C(=O)N2[C@H]1C(=O)O |  |  |  |  |  |  |  |  |  |  |  |  |  |  |  |  |  |  |  |  | Activity [1]: inactive; Activity [2]: inactive
2 | CCN1C(=O)CS/C1=N\NC(=O)C(C)c1ccc(-c2ccccc2)c(F)c1 (stereo unspecified) | inactive | inactive | inactive | inactive | 55.2% | inactive | inactive | inactive | inactive | inactive | inactive | inactive | inactive | inactive | inactive | inactive | inactive | inactive | inactive | 8% | growth at 10 µM [9]: 43.6%; Activity [23]: inactive; Activity [24]: inactive; Activity [25]: inactive; Activity [26]: inactive; Activity [27]: inactive; Activity [28]: inactive; Activity [29]: inactive; Activity [30]: inactive; Activity [31]: inactive; Activity [32]: inactive; Activity [33]: inactive; Activity [35]: inactive
3 | CC(C(=O)NN1C(=O)CSC1c1ccc(Cl)cc1)c1ccc(-c2ccccc2)c(F)c1 (stereo unspecified) |  |  |  |  | 50.9% |  |  |  |  |  |  |  |  |  |  |  |  |  |  | 8% | Activity [36]: Active; Activity [37]: Active; Activity [38]: Active; growth at 10 µM [39]: 49.2%; growth at 10 µM [40]: 29.6%
4 | COc1ccc(/C=N/NC(=O)C(C)c2ccc(-c3ccccc3)c(F)c2)cc1 (stereo unspecified) | inactive | inactive | inactive | inactive | 57.4% | inactive | inactive | inactive | inactive | inactive | inactive | inactive | inactive | inactive | inactive | inactive | inactive | inactive | inactive | 8% | growth at 10 µM [41]: 46%; Activity [23]: inactive; Activity [24]: inactive; Activity [25]: inactive; Activity [26]: inactive; Activity [27]: inactive; Activity [28]: inactive; Activity [29]: inactive; Activity [30]: inactive; Activity [31]: inactive; Activity [32]: inactive; Activity [33]: inactive; Activity [35]: inactive
5 | CC(C(=O)NN1C(=O)CSC1c1ccc([N+](=O)[O-])o1)c1ccc(-c2ccccc2)c(F)c1 (stereo unspecified) |  |  |  |  |  |  |  |  |  |  |  |  |  |  |  |  |  |  |  | 8% | Activity [36]: Active; Activity [37]: Active; zone of inhibition at 10000 µg/mL ([22]; read-out: DIZ): 10 mm; Activity [38]: Active; zone of inhibition at 10000 µg/mL ([24]; read-out: DIZ): 10 mm
